Measurements reported in patent publication US5466858A, “Method of producing straight-chain acrylonitrile dimers” (priority 1993, dated 1995).
Where two headings read alike, the source gives them in different places.

[1] = in water, ionic strength 0 to 0.1 mole/liter, 25° C.

Compound	pKa [1]	pKa (water)
O=C(O)c1c(Cl)cccc1Cl [2,6-dichlorobenzoic acid]	1.82	
O=C(O)c1c(F)cccc1F [2,6-difluorobenzoic acid]		2.31
O=C(O)c1ccc(Cl)c(Cl)c1 [3,4-dichlorobenzoic acid]	3.64	
Nc1ccccc1C(=O)O [Anthranilic acid]	4.79	
CNc1ccccc1C(=O)O [N-methylanthranilic acid]	5.34	
O=C(O)c1cccc(Cl)c1 [m-chlorobenzoic acid]	3.82	
N#Cc1cccc(C(=O)O)c1 [m-cyanobenzoic acid]	3.60	
Cc1cccc(C(=O)O)c1 [m-methylbenzoic acid, reference compound]		4.27
O=C(O)c1cccc(C(F)(F)F)c1 [m-trifluoromethylbenzoic acid]		3.77
CC(=O)c1ccccc1C(=O)O [o-acetylbenzoic acid]		3.79
O=C(O)c1ccccc1Br [o-bromobenzoic acid]		2.85
O=C(O)c1ccccc1Cl [o-chlorobenzoic acid]		2.92
O=C(O)c1ccccc1F [o-fluorobenzoic acid]	3.27	
COc1ccccc1C(=O)O [o-methoxybenzoic acid]	4.09	
O=C(O)c1ccccc1-c1ccccc1 [o-phenylbenzoic acid]		3.46
CC(=O)c1ccc(C(=O)O)cc1 [p-acetylbenzoic acid]		3.70
O=C(O)c1c(F)c(F)c(F)c(F)c1F [pentafluorobenzoic acid, reference compound]		1.48
